Experimental data published in patent US12269012B2, “Columns and methods of use for analytical standards and compounds” (priority 2018, dated 2025).
Read-outs that look alike come from different tables or passages of the source.

Tests used:
[1] = Bound and recovery of PAH standards on PS-DVB on-column standards after 15 days of storage; format: physicochemical; details: standards 0.1-9 ppm; for Average % Bound: PS-DVB pipette tip columns; for Average % Recovered: after 15 days of storage of on-column standards
Method: Primary stock solutions of PAHs, namely B(a)A, Ch, B(b)F and B(a)P, were prepared by dissolving 1-2 mg of each compound in 10.0 mL methanol separately. From these stock solutions, secondary working standard stock solutions were mixed together to constitute the working standards containing all the standards mixed together. The secondary standard mixtures were prepared to have final concentrations of 0.1-10 ppm. All primary and secondary working solutions were stored at −20° C.
PS-DVB 160 μL resin bed volume pipette tip columns (50 mg resin, particle size 70-100 μm particle size, 950 m^2/g surface area) from PhyNexus® (San Jose, CA) were activated with 500 μL of 1:1 methanol/water through five times recycling of the activation solution. The loading was achieved through ten times recycling of the 500 μL sample. Washing was carried out once, with 1:1 methanol/water (ten times recycling of 500 μL wash solution). After washing, the sorbent was dried for 1 minute through flushing ambient air in and out of the tip and then air dried and stored for 15 days.
PS-DVB sorbent retains PAHs due to strong π-π interactions between sorbent and PAHs. The PS/DVB on-column standards were prepared by loading 0.1, 0.3, 0.5, 0.7, 0.9, 1, 3, 5, 7, and 9 ppm standard mixtures. These corresponded to 50, 150, 250, 350, 450, 500, 1500, 2500, 3500, and 4500 ng by weight of each of the four PAH standards contained in the secondary standard mixture.

[2] = SPE binding and recovery of flavonoid standards from freshly prepared Oasis HLB cartridges; format: physicochemical; details: 10, 15, and 20 ppm standard solutions
Method: In addition, on-column standards were prepared from the fresh standards. Unidirectional flow Oasis® HLB, 30 mg sorbent 1 mL cartridges were used as the solid phase extraction column. The appropriate amounts of standard compounds corresponding to 10-30 ppm were adsorbed to SPE sorbent Oasis® HLB cartridges.
The SPE columns were activated with 1 mL methanol and equilibrated with 1 mL water. The cartridges loaded with standard compound solutions dried and were stored in vacuum sealed packing.
The columns were stored for several days. The columns were washed with 1:1 methanol/water. Elution was performed twice with 500 μL 10% formic acid in methanol. HPLC-UV and ESI-MS were used to quantify the target compounds.

[3] = format: physicochemical
Method: All three solutions were combined to a final volume of 10.0 mL using pure methanol. From this stock solution, working standards at net final concentration of 10-30 ppm (each) were prepared by appropriate dilution of the stock solution into 1:1 methanol/water, v/v. All working solutions were stored at −20° C. as well as stored at room temperature (stability was monitored after 4 hours, 1 day, 3 days, 7 days, 10 days and 28 days' storage at room temperature) to monitor the extent of degradation.
Degradation Kinetics (0-28 Days) for wet storage at room temperature.
The stability of flavonoids was compared at wet storage (solution form at room temperature and at −20° C.) and dry storage (room temperature bound to sorbent and dry form in an open Eppendorf vial).

For c1ccc2cc3c(ccc4ccccc43)cc2c1 [Benz(a)anthracene (B(a)A), Benz(a)anthracene], the “Average % Bound” value [1] was 95-99% and the “Average % Recovered” value [1] was 100-102%.

With c1ccc2c(c1)cc1ccc3cccc4ccc2c1c34 [Benzo(a)pyrene (B(a)P), Benzo(a)pyrene] the “Average % Bound” value [1] was 95-99% and the “Average % Recovered” value [1] was 96-100%.

In the case of c1ccc2c(c1)-c1cccc3c1c-2cc1ccccc13 [Benzo(b)fluoranthene (B(b)F), Benzo(b)fluoranthene], the “Average % Bound” value [1] is reported as 95-99% and the “Average % Recovered” value [1] is reported as 90-97%.

With c1ccc2c(c1)ccc1c3ccccc3ccc21 [Chrysene (Ch), Chrysene] the “Average % Bound” value [1] was 95-99% and the “Average % Recovered” value [1] was 100-102%.

In the case of O=c1c(O)c(-c2ccc(O)cc2)oc2cc(O)cc(O)c12 [Kaempferol, kaempferol], the “Bound % (Oasis ® HLB, 30 mg, 1 ml sorbent)” value (from here on “Bound %”) [2] is reported as 100%.

O=c1c(O)c(-c2cc(O)c(O)c(O)c2)oc2cc(O)cc(O)c12 [Myricetin, myricetin] showed a percent degradation ([3]; 0 h, 10 ppm) of 0%, a percent degradation ([3]; 0 h, 15 ppm) of 0% and a percent degradation ([3]; 0 h, 20 ppm) of 0%. For the same compound, the percent degradation ([3]; 0 h, 25 ppm) was 0%, the percent degradation ([3]; 0 h, 30 ppm) was 0% and the percent degradation ([3]; 4 h, 10 ppm) was −0.4796%. It also gave a percent degradation ([3]; 4 h, 15 ppm) of −0.6270%, a percent degradation ([3]; 4 h, 20 ppm) of 1.520% and a percent degradation ([3]; 4 h, 25 ppm) of 0.1736%. It also gave a percent degradation ([3]; 4 h, 30 ppm) of 0.4265%, a percent degradation ([3]; 1 day, 10 ppm) of −0.9592% and a percent degradation ([3]; 1 day, 15 ppm) of 0.3134%. It also gave a percent degradation ([3]; 1 day, 20 ppm) of 2.690%, a percent degradation ([3]; 1 day, 25 ppm) of 3.211% and a percent degradation ([3]; 1 day, 30 ppm) of 0.9239%. It also gave a percent degradation ([3]; 3 days, 10 ppm) of 4.556%, a percent degradation ([3]; 3 days, 15 ppm) of 5.015% and a percent degradation ([3]; 3 days, 20 ppm) of 6.901%. It also gave a percent degradation ([3]; 3 days, 25 ppm) of 5.990%, a percent degradation ([3]; 3 days, 30 ppm) of 3.767% and a percent degradation ([3]; 7 days, 10 ppm) of 11.27%. The percent degradation ([3]; 7 days, 15 ppm) was 9.404%, the percent degradation ([3]; 7 days, 20 ppm) was 12.74% and the percent degradation ([3]; 7 days, 25 ppm) was 10.67%. For the same compound, the percent degradation ([3]; 7 days, 30 ppm) was 8.319%, the percent degradation ([3]; 10 days, 10 ppm) was 12.47% and the percent degradation ([3]; 10 days, 15 ppm) was 10.66%. It also gave a percent degradation ([3]; 10 days, 20 ppm) of 12.63%, a percent degradation ([3]; 10 days, 25 ppm) of 9.982% and a percent degradation ([3]; 10 days, 30 ppm) of 7.747%. For the same compound, the percent degradation ([3]; 28 days, 10 ppm) was 30.46%, the percent degradation ([3]; 28 days, 15 ppm) was 31.97% and the percent degradation ([3]; 28 days, 20 ppm) was 22.92%. For the same compound, the percent degradation ([3]; 28 days, 25 ppm) was 19.36%, the percent degradation ([3]; 28 days, 30 ppm) was 17.13% and the “Bound %” value [2] was 100%.

With O=c1c(O)c(-c2ccc(O)c(O)c2)oc2cc(O)cc(O)c12 [Quercetin, quercetin] the percent degradation ([3]; 0 h, 10 ppm) was 0%, the percent degradation ([3]; 0 h, 15 ppm) was 0% and the percent degradation ([3]; 0 h, 20 ppm) was 0%. It also gave a percent degradation ([3]; 0 h, 25 ppm) of 0%, a percent degradation ([3]; 0 h, 30 ppm) of 0% and a percent degradation ([3]; 4 h, 10 ppm) of −0.4024%. It also gave a percent degradation ([3]; 4 h, 15 ppm) of 0.1356%, a percent degradation ([3]; 4 h, 20 ppm) of −0.4094% and a percent degradation ([3]; 4 h, 25 ppm) of 0.4552%. It also gave a percent degradation ([3]; 4 h, 30 ppm) of −0.3121%, a percent degradation ([3]; 1 day, 10 ppm) of 0.4024% and a percent degradation ([3]; 1 day, 15 ppm) of −0.4070%. The percent degradation ([3]; 1 day, 20 ppm) was 0.1023%, the percent degradation ([3]; 1 day, 25 ppm) was 1.442% and the percent degradation ([3]; 1 day, 30 ppm) was −0.2496%. For the same compound, the percent degradation ([3]; 3 days, 10 ppm) was 3.822%, the percent degradation ([3]; 3 days, 15 ppm) was 2.442% and the percent degradation ([3]; 3 days, 20 ppm) was 1.842%. It also gave a percent degradation ([3]; 3 days, 25 ppm) of 2.656%, a percent degradation ([3]; 3 days, 30 ppm) of 0.9363% and a percent degradation ([3]; 7 days, 10 ppm) of 6.237%. It also gave a percent degradation ([3]; 7 days, 15 ppm) of 3.799%, a percent degradation ([3]; 7 days, 20 ppm) of 4.811% and a percent degradation ([3]; 7 days, 25 ppm) of 4.780%. It also gave a percent degradation ([3]; 7 days, 30 ppm) of 3.246%, a percent degradation ([3]; 10 days, 10 ppm) of 5.432% and a percent degradation ([3]; 10 days, 15 ppm) of 3.664%. The percent degradation ([3]; 10 days, 20 ppm) was 3.480%, the percent degradation ([3]; 10 days, 25 ppm) was 3.414% and the percent degradation ([3]; 10 days, 30 ppm) was 2.871%. The percent degradation ([3]; 28 days, 10 ppm) was 12.47%, the percent degradation ([3]; 28 days, 15 ppm) was 9.633% and the percent degradation ([3]; 28 days, 20 ppm) was 7.881%. The percent degradation ([3]; 28 days, 25 ppm) was 6.525%, the percent degradation ([3]; 28 days, 30 ppm) was 5.056% and the “Bound %” value [2] was 100%.
